The source made the active and inactive calls. No cut-off for these calls is given here.
Key:
[1] = test system: NIH3T3; assay: Anti-fibrotic activity in mouse NIH3T3 cells assessed as inhibition of TGFbeta-induced total collagen production at 10 uM measured after 48 hrs by Sirius Red Collagen Detection Kit relative to control; format: functional
[2] = test system: NIH3T3; assay: Inhibition of TGFbeta1-induced proliferation of mouse NIH3T3 cells assessed as colony formation at 10 uM measured after 7 to 14 days by Crystal violet staining based assay; format: functional, cell-based; settings: time 7-14 day
[3] = test system: L929; assay: Anti-migratory activity in mouse L929 cells assessed as inhibition of TGFbeta1-induced migration at 10 uM measured after 24 hrs by Wound healing assay; format: functional, cell-based
[4] = test system: NIH3T3; assay: Anti-fibrotic activity in mouse NIH3T3 cells assessed as inhibition of TGFbeta-induced total collagen production measured after 48 hrs by Sirius Red Collagen Detection Kit relative to control; format: functional, cell-based; settings: NIH3T3, 48 h
[5] = molecular target: Transient receptor potential cation channel subfamily V member 1 (Mus musculus) (UniProt Q704Y3); assay: Thermal stabilization of TRPV1 in mouse NIH3T3 cells assessed as reduction in TRPV1 degradation at 60 degreeC measured after 30 mins by CETSA; format: cell-based; settings: dose 1-50 µM
Sequence of Transient receptor potential cation channel subfamily V member 1 (Mus musculus) (Q704Y3 whole entry): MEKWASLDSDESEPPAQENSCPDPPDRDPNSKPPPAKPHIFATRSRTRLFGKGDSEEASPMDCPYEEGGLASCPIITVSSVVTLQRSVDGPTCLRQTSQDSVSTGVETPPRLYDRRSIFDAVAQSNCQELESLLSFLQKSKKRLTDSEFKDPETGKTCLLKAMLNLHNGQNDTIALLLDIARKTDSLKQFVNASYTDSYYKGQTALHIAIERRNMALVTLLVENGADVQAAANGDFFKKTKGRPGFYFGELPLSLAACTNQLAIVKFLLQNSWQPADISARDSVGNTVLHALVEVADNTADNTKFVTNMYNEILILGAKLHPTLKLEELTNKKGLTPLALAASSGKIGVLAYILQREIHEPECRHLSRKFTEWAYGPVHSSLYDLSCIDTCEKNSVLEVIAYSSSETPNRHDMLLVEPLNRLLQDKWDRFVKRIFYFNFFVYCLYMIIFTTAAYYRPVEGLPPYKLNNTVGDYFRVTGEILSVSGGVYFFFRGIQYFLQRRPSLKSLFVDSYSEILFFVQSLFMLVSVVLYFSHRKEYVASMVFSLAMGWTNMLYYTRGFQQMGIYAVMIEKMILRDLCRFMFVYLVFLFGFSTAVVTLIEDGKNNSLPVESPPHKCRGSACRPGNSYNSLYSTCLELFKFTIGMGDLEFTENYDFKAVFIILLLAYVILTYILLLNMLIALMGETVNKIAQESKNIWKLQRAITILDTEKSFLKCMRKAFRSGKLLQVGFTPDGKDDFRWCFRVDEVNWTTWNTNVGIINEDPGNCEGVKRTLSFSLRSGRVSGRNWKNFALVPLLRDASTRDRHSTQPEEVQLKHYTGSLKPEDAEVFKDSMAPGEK

[6] = molecular target: Transient receptor potential cation channel subfamily V member 1 (Mus musculus) (UniProt Q704Y3); assay: Thermal stabilization of TRPV1 in mouse NIH3T3 cells assessed as reduction in TRPV1 degradation at 10 uM at 40 to 65 degreeC measured after 30 mins by CETSA; format: cell-based
[7] = molecular target: Transient receptor potential cation channel subfamily V member 1 (Homo sapiens) (UniProt Q8NER1); assay: Inhibition of TRPV1 (unknown origin) overexpressed in HEK-293T cells assessed as reduction in calcium level measured after 24 hrs by Fluo-4 calcium ion detection kit; format: cell-based
Sequence of Transient receptor potential cation channel subfamily V member 1 (Homo sapiens) (Q8NER1 whole entry): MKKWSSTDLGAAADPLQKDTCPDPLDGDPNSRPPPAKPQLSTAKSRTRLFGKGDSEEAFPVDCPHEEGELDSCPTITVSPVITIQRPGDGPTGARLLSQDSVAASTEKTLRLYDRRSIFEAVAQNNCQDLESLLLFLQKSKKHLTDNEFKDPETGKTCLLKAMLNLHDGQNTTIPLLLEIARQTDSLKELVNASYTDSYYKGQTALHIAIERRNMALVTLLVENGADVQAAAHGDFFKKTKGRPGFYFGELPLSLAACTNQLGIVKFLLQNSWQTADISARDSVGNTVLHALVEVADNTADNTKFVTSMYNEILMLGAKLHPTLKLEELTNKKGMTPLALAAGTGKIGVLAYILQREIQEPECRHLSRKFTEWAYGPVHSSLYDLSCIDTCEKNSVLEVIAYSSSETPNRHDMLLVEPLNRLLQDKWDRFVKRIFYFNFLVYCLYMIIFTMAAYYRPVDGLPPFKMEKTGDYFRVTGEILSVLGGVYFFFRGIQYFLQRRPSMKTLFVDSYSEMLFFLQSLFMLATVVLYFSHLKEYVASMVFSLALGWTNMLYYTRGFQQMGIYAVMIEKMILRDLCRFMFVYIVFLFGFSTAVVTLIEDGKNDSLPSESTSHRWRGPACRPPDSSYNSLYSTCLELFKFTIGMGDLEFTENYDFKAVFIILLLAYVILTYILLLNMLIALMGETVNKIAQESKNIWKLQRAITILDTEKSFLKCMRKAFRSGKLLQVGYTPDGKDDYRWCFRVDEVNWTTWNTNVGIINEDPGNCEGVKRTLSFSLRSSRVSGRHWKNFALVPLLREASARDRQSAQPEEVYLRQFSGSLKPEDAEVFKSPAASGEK

[8] = test system: NIH3T3; assay: Inhibition of TGFbeta-induced p38 phosphorylation in mouse NIH3T3 cells at 1 to 10 uM by Western blot analysis; format: functional, cell-based; settings: dose 1-10 µM
[9] = Acute toxicity in Kunming female mouse assessed as Total bilirubin (T-Bil) level at 180 mg/kg, ip measured after 14 days (reference value: 10.79 micromol/L); format: organism-based; settings: in vivo, 336 h, time 14 day
[10] = Acute toxicity in Kunming female mouse assessed as Direct bilirubin (D-Bil) level at 180 mg/kg, ip measured after 14 days (reference value: 3.37 micromol/L); format: organism-based; settings: in vivo, 336 h, time 14 day
[11] = Acute toxicity in Kunming female mouse assessed as Uric acid (UA) level at 180 mg/kg, ip measured after 14 days (reference value: 252.2 micromol/L); format: organism-based; settings: in vivo, 336 h, time 14 day
[12] = Acute toxicity in Kunming female mouse assessed as Lactate dehydrogenase (LDH) level at 180 mg/kg, ip measured after 14 days (reference value: 1952.7 U/L); format: organism-based; settings: in vivo, 336 h, time 14 day
[13] = Acute toxicity in Kunming male mouse assessed as Direct bilirubin (D-Bil) level at 180 mg/kg, ip measured after 14 days (reference value: 6.21 micromol/L); format: organism-based; settings: in vivo, 336 h, time 14 day
[14] = Acute toxicity in Kunming male mouse assessed as Creatinine (CREA) level at 180 mg/kg, ip measured after 14 days (reference value: 12.4 micromol/L); format: organism-based; settings: in vivo, 336 h, time 14 day
[15] = Acute toxicity in Kunming male mouse assessed as Lactate dehydrogenase (LDH) level at 180 mg/kg, ip measured after 14 days (reference value: 1776.1 U/L); format: organism-based; settings: in vivo, 336 h, time 14 day
[16] = Acute toxicity in Kunming male mouse assessed as Creatine kinase (CK) level at 180 mg/kg, ip measured after 14 days (reference value: 710.6 U/L); format: organism-based; settings: in vivo, 336 h, time 14 day
[17] = Acute toxicity in Kunming mouse assessed as organ lesions in heart at 180 mg/kg, ip measured after 14 days by H and E staining based assay; format: organism-based; settings: in vivo, 336 h, time 14 day
[18] = Acute toxicity in Kunming mouse assessed as organ lesions in liver at 180 mg/kg, ip measured after 14 days by H and E staining based assay; format: organism-based; settings: in vivo, 336 h, time 14 day
[19] = MRT(0 to t) in Sprague-Dawley rat at 50 mg/kg, po measured upto 4 hrs by UPLC-MS/MS analysis; format: ADME, organism-based; settings: in vivo
[20] = Half life in Sprague-Dawley rat at 50 mg/kg, po measured upto 4 hrs by UPLC-MS/MS analysis; format: ADME, organism-based; settings: in vivo
[21] = test system: Rattus norvegicus; assay: Zeta in Sprague-Dawley rat at 50 mg/kg, po measured upto 4 hrs by UPLC-MS/MS analysis; format: ADME, organism-based; settings: in vivo
[22] = Half life in Sprague-Dawley rat at 50 mg/kg, ip measured upto 4 hrs by UPLC-MS/MS analysis; format: ADME, organism-based; settings: in vivo
[23] = test system: Rattus norvegicus; assay: Zeta in Sprague-Dawley rat at 50 mg/kg, ip measured upto 4 hrs by UPLC-MS/MS analysis; format: ADME, organism-based; settings: in vivo
[24] = MRT(0 to infinity) in Sprague-Dawley rat at 50 mg/kg, iv measured upto 4 hrs by UPLC-MS/MS analysis; format: ADME, organism-based; settings: in vivo
[25] = test system: Rattus norvegicus; assay: Zeta in Sprague-Dawley rat at 50 mg/kg, iv measured upto 4 hrs by UPLC-MS/MS analysis; format: ADME, organism-based; settings: in vivo
[26] = test system: Rattus norvegicus; assay: Cz in Sprague-Dawley rat at 50 mg/kg, iv measured upto 4 hrs by UPLC-MS/MS analysis; format: ADME, organism-based; settings: in vivo
[27] = test system: Mus musculus; assay: Anti-pulmonary fibrotic activity against bleomycin induced pulmonary fibrosis mouse model assessed as reduction in pulmonary fibrosis lesions at 10 to 20 mg/kg, ip administered every alternative day for 8 to 21 days after modeling; format: functional, organism-based; settings: dose 10-20 mg/kg, time 8-21 day
[28] = test system: Mus musculus; assay: Anti-pulmonary fibrotic activity against bleomycin induced pulmonary fibrosis mouse model assessed as reduction in inflammatory cell infiltration at 10 to 20 mg/kg, ip administered every alternative day for 8 to 21 days after modeling; format: functional, organism-based; settings: dose 10-20 mg/kg, time 8-21 day
[29] = Toxicity in bleomycin-induced pulmonary fibrosis mouse model assessed as body weight change at 10 to 20 mg/kg, ip administered every alternative day for 8 to 21 days after modeling; format: organism-based; settings: in vivo, dose lower 10 mg/kg, time lower 8 day, dose upper 20 mg/kg, time upper 21 day
[30] = test system: Mus musculus; assay: Anti-fibrotic activity against bleomycin-induced pulmonary fibrosis mouse model assessed as decrease in hydroxyproline level in lung tissue at 10 to 20 mg/kg, ip administered every alternative day for 8 to 21 days after modeling […]; format: functional, organism-based; settings: dose 10-20 mg/kg, time 8-21 day
[31] = test system: Mus musculus; assay: Anti-fibrotic activity against bleomycin-induced pulmonary fibrosis mouse model assessed as increase in survival of mouse at 10 to 20 mg/kg, ip administered every alternative day for 8 to 21 days after modeling; format: functional, organism-based; settings: dose 10-20 mg/kg, time 8-21 day
[32] = test system: Mus musculus; assay: Anti-fibrotic activity against bleomycin-induced pulmonary fibrosis mouse model assessed as increase in lung compliance at 10 to 20 mg/kg, ip administered every alternative day for 8 to 21 days after modeling; format: functional, organism-based; settings: dose 10-20 mg/kg, time 8-21 day
[33] = test system: Mus musculus; assay: Anti-pulmonary fibrotic activity against bleomycin-induced pulmonary fibrosis mouse model assessed as inhibition of collagen I expression in lung tissue at 10 to 20 mg/kg, ip administered every alternative day for 8 to 21 days after modeling by immunohistochemical staining based assay; format: functional, organism-based; settings: dose 10-20 mg/kg, time 8-21 day
[34] = test system: Mus musculus; assay: Anti-pulmonary fibrotic activity against bleomycin-induced pulmonary fibrosis mouse model assessed as inhibition of Smad3 phosphorylation in lung tissue at 10 to 20 mg/kg, ip administered every alternative day for 8 to 21 days after modeling by immunohistochemical staining based assay; format: functional, organism-based; settings: dose 10-20 mg/kg, time 8-21 day
[35] = AUC(0 to t) in Sprague-Dawley rat at 50 mg/kg, iv measured upto 4 hrs by UPLC-MS/MS analysis; format: ADME, organism-based; settings: in vivo

## O=C(/C=C/c1ccc(O)c(O)c1)CCCCc1ccccc1
[1]
  inhibition at 10 µM: 80.7%
[2]
  inhibition: Active
[3]
  Activity: Active
[4]
  IC50: 510 nM
[5]
  Activity: Dose-dependent-effect
[6]
  Activity: Active
[7]
  inhibition: Active
[8]
  inhibition: Active
[9]
  Activity: 18.82 µmol/L
[10]
  Activity: 1.02 µmol/L
[11]
  Activity: 345.6 µmol/L
[12]
  Activity: 2798.2 U/L
[13]
  Activity: 3.94 µmol/L
[14]
  Activity: 15.3 µmol/L
[15]
  Activity: 2486.8 U/L
[16]
  Activity: 710.6 U/L
[17]
  Activity: Non-toxic
[18]
  Activity: Non-toxic
[19]
  MRT last at 4 h: 73.2 min
[20]
  half-life: 51 min
[21]
  Activity: 0.84
[22]
  half-life: 21 min
[23]
  Activity: 1.98
[24]
  MRT inf: 47.6 min
[25]
  Activity: 1.07
[26]
  Cz: 31.67 µg/L
[27]
  Activity: Active
[28]
  Activity: Active
[29]
  Activity: Non-toxic
[30]
  Activity: Active
[31]
  Activity: Active; Comparable To Nintedanib
[32]
  Activity: Active
[33]
  Activity: Active
[34]
  Activity: Active
[35]
  AUC(0-t) at 4 h: 2640 ng·h/mL
